Experimental data taken from US9926294B2, “Pesticidally active heterocyclic derivatives with sulphur containing substituents” (Syngenta Participations AG, priority 2014, dated 2018).

Assays:
Assay type in all cases: in vivo
[1] = system: Spodoptera littoralis (Egyptian cotton leaf worm); experiment: Example B1: Spodoptera littoralis larvicide, feeding/residual contact, preventive (cotton leaf discs); conditions: foliar, 72 h, L1 larvae on sprayed cotton leaf discs, 3 days after treatment, read-out: activity (mortality, repellent effect, feeding behaviour, growth regulation)
Description: Example B1: Activity Against Spodoptera littoralis (Egyptian Cotton Leaf Worm)
Larvicide, Feeding/Residual Contact Activity, Preventive
Cotton leaf discs were placed on agar in a 24-well microtiter plate and sprayed with test solutions.
After drying, the leaf discs were infested with 5 L1 larvae. The samples were checked for mortality, repellent effect, feeding behaviour, and growth regulation 3 days after treatment (DAT).

[2] = system: Plutella xylostella (diamond back moth); experiment: Example B3: Plutella xylostella larvicide, feeding/residual contact, preventive (artificial diet); conditions: 120 h, L2 larvae on artificial diet, 5 days incubation, read-out: activity (larval mortality, antifeedant, growth regulation)
Experimental: Example B3: Activity Against Plutella xylostella (Diamond Back Moth)
(Larvicide, Feeding/Residual Contact Activity, Preventive)
24-well microtiter plate (MTP) with artificial diet was treated with test solutions by pipetting. After drying, the MTPs were infested with L2 larvae (10-15 per well). After an incubation period of 5 days, samples were checked for larval mortality, antifeedant and growth regulation.

[3] = system: Diabrotica balteata (corn root worm); experiment: Example B4: Diabrotica balteata larvae L2 on maize sprouts, feeding/contact, preventative; conditions: 120 h, L2 larvae on sprayed maize sprouts, 5 days incubation, read-out: activity (larval mortality, growth regulation)
Experimental: Example B4: Activity Against Diabrotica Balteata (Corn Root Worm)
(Larvae L2 on Maize Sprouts, Feeding/Contact, Preventative)
Maize sprouts, placed on an agar layer in 24 well micro titer plates were treated with test solutions by spraying. After drying, the MTPs were infested with L2 larvae (6-10 per well). After an incubation period of 5 days, samples were checked for larval mortality and growth regulation.

[4] = system: Myzus persicae (green peach aphid); experiment: Example B5: Myzus persicae feeding/residual contact, preventive, mixed population (sunflower leaf discs); conditions: foliar, 144 h, mixed population on sprayed sunflower leaf discs, 6 DAT, read-out: activity (mortality, special effects)
Experimental: Example B5: Activity Against Myzus persicae (Green Peach Aphid)
(Feeding/Residual Contact Activity, Preventive), Mixed Population
(§1) Sunflower leaf discs were placed on agar in a 24-well microtiter plate and sprayed with test solutions. After drying, the leaf discs were infested with an aphid population of mixed ages. After an incubation period of 6 DAT, samples were checked for mortality and special effects (e.g. phytotoxicity).

[5] = system: Thrips tabaci (onion thrips); experiment: Example B8: Thrips tabaci mixed population, feeding/residual contact, preventive; conditions: foliar, 168 h, mixed population on sprayed sunflower leaf discs, 7 days incubation, read-out: activity (mortality, special effects)
Experimental: Example B8: Activity Against Thrips tabaci (Onion Thrips)
(Mixed Population, Feeding/Residual Contact Activity, Preventive)
as §1, with “a thrips” for “an aphid”, “7 days,” for “6 DAT,”

[6] = system: Bemisia tabaci (cotton white fly); experiment: Example B9: Bemisia tabaci adulticide contact activity, preventative; conditions: foliar, 168 h, adult white flies on sprayed cotton leaf discs, 7 DAT, read-out: activity (mortality, special effects)
Experimental: Example B9: Activity Against Bemisia tabaci (Cotton White Fly)
(Adulticide Contact Activity, Preventative), Adult
Cotton leaf discs were placed on agar in a 24-well microtiter plate and sprayed with test solutions. After drying, the leaf discs were infested with adult white flies. After an incubation period of 7 DAT, samples were checked for mortality and special effects (e.g. phytotoxicity).

[7] = system: Spodoptera littoralis (Egyptian cotton leaf worm); experiment: Example B2: Spodoptera littoralis systemic activity (lettuce on agar); conditions: 120 h, systemic via lettuce roots, 5 days after infestation, read-out: activity (mortality, repellent effect, feeding behavior, growth regulation)
Description: Example B2: Activity Against Spodoptera littoralis (Egyptian Cotton Leaf Worm)
Test compounds were applied by pipette into 24 well plates and mixed with agar. Lettuce seeds were placed on the agar and the multi well plate is closed by another plate which contains also agar. After 7 days the roots have absorbed the compound and the lettuce has grown into the lid plate. The lettuce leaves were now cut off into the lid plate. Spodoptera eggs were pipetted through a plastic stencil on a humid gel blotting paper and the plate closed with it. The samples are checked for mortality, repellent effect, feeding behavior, and growth regulation 5 days after infestation.

[8] = system: Myzus persicae (green peach aphid); experiment: Example B6: Myzus persicae feeding activity sachet test, mixed population; conditions: 120 h, sachet test in sucrose solution, 5 days after infestation
Description: Example B6: Activity Against Myzus persicae (Green Peach Aphid)
(Feeding Activity Sachet Test), Mixed Population
Test compounds were applied by pipette into 24 well plates and mixed with Sucrose solution. The plates were closed with a stretched Parafilm. A plastic stencil with 24 holes is placed onto the plate and infested pea seedlings were placed directly on the Parafilm. The infested plate is closed with a gel blotting paper and another plastic stencil and then turned upside down. 5 days after infestation the samples were checked on mortality. Application rate: 12.5 ppm.

[9] = system: Myzus persicae (green peach aphid); experiment: Example B7: Myzus persicae systemic/feeding activity, curative, mixed population (pea seedlings); conditions: 144 h, roots of infested pea seedlings in test solution, 6 days after introduction, read-out: activity (mortality, special effects on the plant)
Description: Example B7: Activity Against Myzus persicae (Green Peach Aphid)
(Systemic/Feeding Activity, Curative), Mixed Population
Roots of pea seedlings, infested with an aphid population of mixed ages, were placed directly in the test solutions. 6 days after introduction, samples were checked for mortality and special effects on the plant.

[10] = system: Tetranychus urticae (two-spotted spider mite); experiment: Example B12: Tetranychus urticae mixed population on bean leaf discs; conditions: foliar, 192 h, mixed population (mobile stages) on sprayed bean leaf discs, 8 days after infestation
Experimental: Example B12: Activity Against Tetranychus urticae (Two-Spotted Spider Mite)
Bean leaf discs on agar in 24-well microtiter plates were sprayed with aqueous test solutions prepared from 10′000 ppm DMSO stock solutions. After drying the leaf discs were infested with a mite population of mixed ages. The samples were assessed for mortality on mixed population (mobile stages) 8 days after infestation.

[11] = system: Frankliniella occidentalis (western flower thrips); experiment: Example B11: Frankliniella occidentalis mixed population, feeding/contact, preventative; conditions: foliar, 168 h, mixed population on sprayed sunflower leaf discs, 7 DAT, read-out: activity (mortality, special effects)
Experimental: Example B11: Activity Against Frankliniella occidentalis (Western Flower Thrips)
(Mixed Population, Feeding/Contact, Preventative)
as §1, with “are” for “were”, “a Frankliniella” for “an aphid”, “7” for “6”

[12] = system: Euschistus heros (neotropical brown stink bug); experiment: Example B10: Euschistus heros N-2 nymphs on soybean leaf; conditions: 120 h, N-2 nymphs on sprayed soybean leaf, 5 days after infestation
Experimental: Example B10: Activity Against Euschistus heros (Neotropical Brown Stink Bug)
Soybean leaf on agar in 24-well microtiter plates were sprayed with aqueous test solutions prepared from 10′000 ppm DMSO stock solutions. After drying the leaf were infested with N-2 nymphs. The samples were assessed for mortality 5 days after infestation.

CCSc1cc(C(F)(F)F)cnc1-c1nnc(-c2cc(C(F)(F)F)ccn2)n1C [Compound P1, 3-ethylsulfanyl-2-[4-methyl-5-[4-(trifluoromethyl)-2-pyridyl]-1,2,4-triazol-3-yl]-5-(trifluoromethyl)pyridine]
> 80%: mortality at 400 ppm [1] | mortality at 400 ppm [2] | mortality at 400 ppm [3] | mortality at 400 ppm [4] | mortality at 400 ppm [5] | mortality at 400 ppm [6]

CCS(=O)(=O)c1cc(C(F)(F)F)cnc1-c1nnc(-c2cc(C(F)(F)F)ccn2)n1C [Compound P2, 3-ethylsulfonyl-2-[4-methyl-5-[4-(trifluoromethyl)-2-pyridyl]-1,2,4-triazol-3-yl]-5-(trifluoromethyl)pyridine]
≥ 80%: mortality at 12.5 ppm [7] | mortality at 12.5 ppm [8] | mortality at 24 ppm [9]
> 80%: mortality at 400 ppm [1] | mortality at 400 ppm [2] | mortality at 400 ppm [3] | mortality at 400 ppm [4] | mortality at 400 ppm [5] | mortality at 400 ppm [6]

CCS(=O)(=O)c1cc(C(F)(F)F)cnc1-c1nnc(-c2ccc(C(F)(F)F)nc2)n1C [Compound P6]
≥ 80%: mortality at 24 ppm [9] | mortality at 400 ppm [10]

CCS(=O)(=O)c1cc(C(F)(F)F)cnc1-c1nnc(-c2ccccc2)n1C [Compound P11]
≥ 80%: mortality at 400 ppm [10]
> 80%: mortality at 400 ppm [3]

CCS(=O)(=O)c1cc(C(F)(F)F)cnc1-c1nnc(-c2cc(F)cc(F)c2)n1C [Compound P29]
> 80%: mortality at 400 ppm [2]
≥ 80%: mortality at 400 ppm [10]

CCS(=O)(=O)c1cc(C(F)(F)F)cnc1-c1nnc(-c2cccnc2)n1C [Compound P42]
> 80%: mortality at 400 ppm [11]

CCS(=O)(=O)c1cc(C(F)(F)F)cnc1-c1nnc(-c2ccc(Cl)c(C(F)(F)F)c2)n1C [Compound P48]
> 80%: mortality at 400 ppm [1] | mortality at 400 ppm [3] | mortality at 400 ppm [4] | mortality at 400 ppm [6] | mortality at 400 ppm [12]

CCSc1cc(OC(F)F)cnc1-c1nnc(-c2ccc(C(F)(F)F)nc2)n1C [Compound P57]
≥ 80%: mortality at 400 ppm [10]

CCSc1cc(C(F)(F)F)ccc1-c1nnc(-c2cc(C(F)(F)F)ccn2)n1C [Compound P59]
> 80%: mortality at 400 ppm [1] | mortality at 400 ppm [2] | mortality at 400 ppm [3] | mortality at 400 ppm [4] | mortality at 400 ppm [5] | mortality at 400 ppm [6]

CCS(=O)(=O)c1cc(C(F)(F)F)ccc1-c1nnc(-c2cc(C(F)(F)F)ccn2)n1C [Compound P60]
≥ 80%: mortality at 12.5 ppm [7] | mortality at 24 ppm [9]
> 80%: mortality at 400 ppm [1] | mortality at 400 ppm [2] | mortality at 400 ppm [3] | mortality at 400 ppm [4] | mortality at 400 ppm [5] | mortality at 400 ppm [6]

CCS(=O)(=O)c1cc(C(F)(F)F)cnc1-c1nnc(-c2cnc(C(F)(F)F)nc2)n1C [Compound P62]
> 80%: mortality at 400 ppm [1] | mortality at 400 ppm [2] | mortality at 400 ppm [3] | mortality at 400 ppm [4] | mortality at 400 ppm [12]

CCn1c(-c2cc(C(F)(F)F)ccn2)nnc1-c1ncc(C(F)(F)F)cc1S(=O)(=O)CC [Compound P65]
> 80%: mortality at 400 ppm [1] | mortality at 400 ppm [3] | mortality at 400 ppm [5]
≥ 80%: mortality at 12.5 ppm [7]

CCS(=O)(=O)c1cccnc1-c1nnc(-c2cc(C(F)(F)F)ccn2)n1C [Compound P69]
> 80%: mortality at 400 ppm [1] | mortality at 400 ppm [2] | mortality at 400 ppm [3] | mortality at 400 ppm [4] | mortality at 400 ppm [6] | mortality at 400 ppm [12]
≥ 80%: mortality at 24 ppm [9]
